Consider 4 compounds from US20110275559A1, “Long-Acting Y2 and/or Y4 Receptor Agonists” (Novo Nordisk A/S, priority 2008, published 2011).

*1 amine or outer side, *2 acyl side, *3 side chain or, on linkers, in order; H or OH if unused. Where a SMILES comes first, the peptide text is derived from it. Where no end group is shown, it is not given here. Side-chain parts run from the residue outwards. The star is where a group is joined. C20 diacid = O=C(O)CCCCCCCCCCCCCCCCCCC(=O)*; C18 diacid = O=C(O)CCCCCCCCCCCCCCCCC(=O)*; γGlu = O=C(O)[C@H](CCC(=O)[*:2])N[*:1]; Trx = NC[C@H]1CC[C@H](C(=O)O)CC1; AEEA = NCCOCCOCC(=O)O

Data set [1] has as its target T1, Y2 receptor (Homo sapiens, UniProt P49146).
T1 construct: host or cells: ACTOne HEK-293 cells
T1 sequence (P49146 1-381): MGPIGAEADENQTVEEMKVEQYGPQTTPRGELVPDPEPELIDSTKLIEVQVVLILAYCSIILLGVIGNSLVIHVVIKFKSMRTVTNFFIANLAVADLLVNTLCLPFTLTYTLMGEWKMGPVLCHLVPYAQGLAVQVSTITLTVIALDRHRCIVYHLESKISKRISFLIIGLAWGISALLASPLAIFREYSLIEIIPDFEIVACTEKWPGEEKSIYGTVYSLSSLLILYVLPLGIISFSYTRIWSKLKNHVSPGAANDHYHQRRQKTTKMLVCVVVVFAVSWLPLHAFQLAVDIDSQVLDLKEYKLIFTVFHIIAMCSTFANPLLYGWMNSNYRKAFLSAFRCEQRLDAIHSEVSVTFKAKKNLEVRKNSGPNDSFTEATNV
Put plainly: Y2 receptor ACTOne based FLIPR assay (cAMP biosensor). Conditions: Table 2, PP analogues; ACTOne HEK-293 cells; read-out: Y2 cAMP EC50. Format: cell-based. From the text:
ACTOne™ is an easily scaleable cAMP biosensor HTS platform for measurement of Gs and Gi coupled 7™ receptor signalling from BD Biosciences (San Jose, Calif.). The cells express a biosensor developed around a modified rat olfactory cyclic nucleotide gated (CNG) calcium channel—a fairly non-discriminatory ion channel that responds to cAMP and cGMP. The CNG has been engineered to be cAMP selective and thus function as a cAMP responsive biosensor that signals through calcium or membrane potential responsive dyes. Y2 or Y4 receptor expressing ACTOne HEK-293 cells are obtained from BD Biosciences. The cells are loaded with a calcium responsive dye that only distributes in the cytoplasm. Probenecid, an inhibitor of the organic anion transporter is added to prevent the dye from leaving the cell. A phosphodiesterase inhibitor is added to prevent formatted cAMP from being degraded. Isoproterenol (an β1/β2 agonist) is added to activate the adenylate cyclase. When an Y2 or Y4 receptor agonist is added, the adenylate cyclase is inactivated. The decreased calcium concentration in the cytoplasm is then detected as an increase in fluorescence. Together with the test substance, Isoproterenol at a concentration matching EC80, is added to all wells. • The cells are plated out in Greiner 384-well plates. […] The plates are covered with tinfoil to avoid light (the dye can be excited by the daylight, which results in higher baseline and variation). • The FLIPR (FLIPRtetra from Molecular Devices, CA, USA) adds 1 μl sample and 1 μl isoproterenol (0.05 μM final concentration) at the same time. • The fluorescence signal from the wells is measured 330 seconds after sample addition on the FLIPR.

Data set [2] in a line: in vivo. Conditions: Göttingen, minipig, iv. As for the experimental part:
(§1) The mini-pigs had two central venous catheters inserted which were used for intra venous (i.v.) dosing and bloodsampling. Compound was dissolved in 50 mM K2HPO4, 0.05% tween 80, pH=8.0 to a concentration of 180 nmol/ml. The pigs were dosed with 6 nmol compound/kg body weight. […] The blood samples were collected into test tubes containing EDTA buffer for stabilization and kept on ice for max. 20 minutes before centrifugation. The centrifugation procedure to separate plasma was; 4° C., 3000 rpm for 10 minutes. Plasma were collected and immediately transferred to Micronic tubes stored at −20° C. until assayed.
An additional mini-pig PK assay was used for measuring PK of the compounds of the invention. […] The animals had two central venous catheters inserted which were used for intra venous (i.v.) dosing and blood sampling. Compounds were dissolved in 10 mM Na2HPO4, 150 mM NaCl, 0.01% tween 80, pH=4.0 to concentrations in the range of 40 nmol/ml to 200 nmol/ml. The mini-pigs were dosed i.v. with 10 nmol compound/kg body weight, occasionally other doses such as 4 nmol/kg, 30 nmol/kg or 50 nmol/kg were administered. Each compound was dosed to 3 or 4 mini-pigs, and two compounds may be given simultaneously to the same animal. Blood were sampled pre-dose and 12 times during the first 10 hours post-dose. Blood were furthermore sampled once daily until 13 days post dosing. The blood samples were collected into test tubes containing EDTA buffer, trasylol and Val-Pyr for stabilization and kept on ice for max. 20 minutes. Samples were centrifuged at 4° C., 2000G for 10 minutes to separate plasma. Plasma were collected and immediately transferred to Micronic tubes stored at −20° C. until assayed.
Plasma samples were analysed by LC-MS on an LTQ-Orbitrap (ThermoFisher Scientific, Bremen) to which Accela HPLC pumps and an autosampler were connected (both from ThermoFisher). […] HPLC was performed on a Jupiter Proteo column (4μ) 90A (50×2.0 mm ID). […] The flow rate was 0.3 ml/min. For analysis of plasma samples, 30 μl plasma was precipitated with 90 μl ethanol. […] The heptane phase was removed after 5 min and the remaining solution was analysed by LC-MS as described above. For construction of plasma standards, compound was spiked to plasma (minipig) at the following concentrations: 1 nM, 2 nM, 5 nM, 10 nM, 20 nM, 50 nM, 100 nM, 200 nM. The plasma standards were treated as the samples. The lower limit of quantification was estimated to 2 nM.
Non-compartmental analysis (NCA): Plasma concentration-time profiles were analyzed by non-compartmental pharmacokinetics analysis (NCA) using WinNonlin Professional 5.0 (Pharsight Inc., Mountain View, Calif., USA). NCA was performed using the individual plasma concentration-time profiles from each animal.
For determination of plasma concentration of the PYY and PP peptide derivative or analogues thereof the following Methods 1-4 were used.
as §1, with “bloodsampling. The compound” for “bloodsampling. Compound”, “to an appropriate” for “to a”, “concentration (e.g. 25-500 nmol/mL).” for “concentration of 180 nmol/ml.”, “dosed intravenously (i.v.) or subcutaneously (s.c.)” for “dosed”, “with between 1 and 30” for “with 6”, “buffer (with Aprotinin 15000 KIE/mL and Val-Pyr 0.30 mM)” for “buffer”
An additional mini-pig PK assay was used for measuring PK of the compounds of the invention. […] The animals had two central venous catheters inserted which were used for intra venous (i.v.) dosing and blood sampling.

With “PLEPVYPGDNATPEQLAQYAADLRRYINLLTRPRY-NH2 (C-terminus assumed) [SEQ ID NO: 73, [Leu17,Leu30]hPP2-36, reference compound]”, the EC50 in data set [1] is over 1000 nM. In addition, the half-life in data set [2] (50 nmol/kg) was 0.55 h.
`CC[C@H](C)[C@H](NC(=O)[C@H](Cc1ccc(O)cc1)NC(=O)[C@H](CCCNC(=N)N)NC(=O)[C@H](CCCNC(=N)N)NC(=O)[C@H](CC(C)C)NC(=O)[C@H](CC(=O)O)NC(=O)[C@H](C)NC(=O)[C@H](C)NC(=O)[C@H](Cc1ccc(O)cc1)NC(=O)[C@H](CCC(N)=O)NC(=O)[C@H](CCCCNC(=O)COCCOCCNC(=O)COCCOCCNC(=O)CC[C@H](NC(=O)[C@H]1CC[C@H](CNC(=O)CCCCCCCCCCCCCCCCCCC(=O)O)CC1)C(=O)O)NC(=O)[C@H](CC(C)C)NC(=O)[C@H](CCC(N)=O)NC(=O)[C@H](CCC(=O)O)NC(=O)[C@@H]1CCCN1C(=O)[C@@H](NC(=O)[C@H](C)NC(=O)[C@H](CC(N)=O)NC(=O)[C@H](CC(=O)O)NC(=O)CNC(=O)[C@@H]1CCCN1C(=O)[C@H](Cc1ccc(O)cc1)NC(=O)[C@@H](NC(=O)[C@@H]1CCCN1C(=O)[C@H](CCC(=O)O)NC(=O)[C@H](CC(C)C)NC(=O)[C@@H]1CCCN1)C(C)C)[C@@H](C)O)C(=O)N[C@@H](CC(N)=O)C(=O)N[C@@H](CC(C)C)C(=O)N[C@@H](CC(C)C)C(=O)N[C@H](C(=O)N[C@@H](CCCNC(=N)N)C(=O)N1CCC[C@H]1C(=O)N[C@@H](CCCNC(=N)N)C(=O)N[C@@H](Cc1ccc(O)cc1)C(N)=O)[C@@H](C)O` [SEQ ID NO: 43, N-epsilon18-[2-(2-{2-[2-(2-{2-[(S)-4-Carboxy-4-({trans-4-[(19-carboxynonadecanoylamino)methyl]cyclohexanecarbonyl}amino)butyrylamino]-ethoxy}ethoxy)acetylamino]ethoxy}ethoxy)acetyl][Leu17,Lys18,Leu30]hPP2-36] (H-PLEPVYPGDNATPEQLK([AEEA-AEEA-γGlu-Trx-C20 diacid])QYAADLRRYINLLTRPRY-NH2; N-terminus and C-terminus assumed): the EC50 in data set [1] was over 1000 nM. This compound also showed a half-life in data set [2] (13.5 nmol/kg) of 55 h.
`CC[C@H](C)[C@H](NC(=O)[C@H](Cc1ccc(O)cc1)NC(=O)[C@H](CCCNC(=N)N)NC(=O)[C@H](CCCNC(=N)N)NC(=O)[C@H](CC(C)C)NC(=O)[C@H](CC(=O)O)NC(=O)[C@H](C)NC(=O)[C@H](C)NC(=O)[C@H](Cc1ccc(O)cc1)NC(=O)[C@H](CCC(N)=O)NC(=O)[C@H](CCCCNC(=O)COCCOCCNC(=O)COCCOCCNC(=O)CC[C@H](NC(=O)CCCCCCCCCCCCCCCCC(=O)O)C(=O)O)NC(=O)[C@H](CC(C)C)NC(=O)[C@H](CCC(N)=O)NC(=O)[C@H](CCC(=O)O)NC(=O)[C@@H]1CCCN1C(=O)[C@@H](NC(=O)[C@H](C)NC(=O)[C@H](CC(N)=O)NC(=O)[C@H](CC(=O)O)NC(=O)CNC(=O)[C@@H]1CCCN1C(=O)[C@H](Cc1ccc(O)cc1)NC(=O)[C@@H](NC(=O)[C@@H]1CCCN1C(=O)[C@H](CCC(=O)O)NC(=O)[C@H](CC(C)C)NC(=O)[C@@H]1CCCN1)C(C)C)[C@@H](C)O)C(=O)N[C@@H](CC(N)=O)C(=O)N[C@@H](CC(C)C)C(=O)N[C@@H](CC(C)C)C(=O)N[C@H](C(=O)N[C@@H](CCCNC(=N)N)C(=O)N1CCC[C@H]1C(=O)N[C@@H](CCCNC(=N)N)C(=O)N[C@@H](Cc1ccc(O)cc1)C(N)=O)[C@@H](C)O` [SEQ ID NO: 32, N-epsilon18-[2-(2-{2-[2-(2-{2-[(S)-4-Carboxy-4-(17-carboxyheptadecanoylamino)butyrylamino]ethoxy}ethoxy)acetylamino]-ethoxy}ethoxy)acetyl][Lys18,Leu17,Leu30]hPP2-36] (H-PLEPVYPGDNATPEQLK([AEEA-AEEA-γGlu-C18 diacid])QYAADLRRYINLLTRPRY-NH2; N-terminus and C-terminus assumed): the concentration giving a half-maximal response (EC50) in data set [1] is over 1000 nM. Moreover, the half-life in data set [2] (12 nmol/kg) was 46 h.
For the compound `CC[C@H](C)[C@H](NC(=O)[C@H](Cc1ccc(O)cc1)NC(=O)[C@H](CCCCNC(=O)COCCOCCNC(=O)COCCOCCNC(=O)CC[C@H](NC(=O)CCCCCCCCCCCCCCCCC(=O)O)C(=O)O)NC(=O)[C@H](CCCNC(=N)N)NC(=O)[C@H](CC(C)C)NC(=O)[C@H](CC(=O)O)NC(=O)[C@H](C)NC(=O)[C@H](C)NC(=O)[C@H](Cc1ccc(O)cc1)NC(=O)[C@H](CCC(N)=O)NC(=O)[C@H](C)NC(=O)[C@H](CC(C)C)NC(=O)[C@H](CCC(N)=O)NC(=O)[C@H](CCC(=O)O)NC(=O)[C@@H]1CCCN1C(=O)[C@@H](NC(=O)[C@H](C)NC(=O)[C@H](CC(N)=O)NC(=O)[C@H](CC(=O)O)NC(=O)CNC(=O)[C@@H]1CCCN1C(=O)[C@H](Cc1ccc(O)cc1)NC(=O)[C@@H](NC(=O)[C@@H]1CCCN1C(=O)[C@H](CCC(=O)O)NC(=O)[C@H](CC(C)C)NC(=O)[C@@H]1CCCN1)C(C)C)[C@@H](C)O)C(=O)N[C@@H](CC(N)=O)C(=O)N[C@@H](CC(C)C)C(=O)N[C@@H](CC(C)C)C(=O)N[C@H](C(=O)N[C@@H](CCCNC(=N)N)C(=O)N1CCC[C@H]1C(=O)N[C@@H](CCCNC(=N)N)C(=O)N[C@@H](Cc1ccc(O)cc1)C(N)=O)[C@@H](C)O` [SEQ ID NO: 46, N-epsilon26-[2-(2-{2-[2-(2-{2-[(S)-4-Carboxy-4-(17-carboxyheptadecanoylamino)butyrylamino]ethoxy}ethoxy)acetylamino]-ethoxy}ethoxy)acetyl][Leu17,Lys26,Leu30]hPP2-36] (H-PLEPVYPGDNATPEQLAQYAADLRK([AEEA-AEEA-γGlu-C18 diacid])YINLLTRPRY-NH2; N-terminus and C-terminus assumed), in data set [1], the 50% effective concentration (EC50) is over 1000 nM. The compound also gave a half-life in data set [2] (4 nmol/kg) of 62 h.

For orientation: EC50 means the concentration that produces a half-maximal response. One may read the half-life as how long it takes for the measured level to halve. Low readings indicate fast loss, high ones slow loss.
